# Measurements taken from patent US10300031B2, “Pharmaceutical compositions for treating chronic pain and pain associated with neuropathy” (priority 2007, dated 2019).
# “And” between values parts separate entries of the source, which are not always exact repeats. Identical values can stand only once. Counter-ions that a name gives are not always drawn. Like-named read-outs stand apart in the source and are kept apart here.
# Experiments:
# [1] = tested on: pain in diabetic neuropathy and fibromyalgia patients; assay: Pooled statements on pain reduction in diabetic neuropathy and fibromyalgia patients; type: in vivo, human
# diabetic neuropathy pain [2] = assay: Combination therapy in patients with diabetic neuropathy (Table 2, testimonies); details: for Pain Relief (percent of reduction in pain), Diabetic Neuropathy: TLI-1026 twice daily (N = 5), single agents mg/day: dextromethorphan 70, tramadol 70, gabapentin 180; for pain relief (patient or physician testimony): diabetic neuropathy patients; for side effects / tolerability: two patients with diabetic peripheral polyneuropathy
# Fibromyalgia = details: Dose mg/day: dextromethorphan hydrobromide 400-480, tramadol hydrochloride 400, gabapentin 3600; cited from earlier work
# μ-opiate receptors = μ-opiate receptors (Homo sapiens, UniProt P35372); details: cited from earlier work
# Sequence of μ-opiate receptors (P35372 whole entry): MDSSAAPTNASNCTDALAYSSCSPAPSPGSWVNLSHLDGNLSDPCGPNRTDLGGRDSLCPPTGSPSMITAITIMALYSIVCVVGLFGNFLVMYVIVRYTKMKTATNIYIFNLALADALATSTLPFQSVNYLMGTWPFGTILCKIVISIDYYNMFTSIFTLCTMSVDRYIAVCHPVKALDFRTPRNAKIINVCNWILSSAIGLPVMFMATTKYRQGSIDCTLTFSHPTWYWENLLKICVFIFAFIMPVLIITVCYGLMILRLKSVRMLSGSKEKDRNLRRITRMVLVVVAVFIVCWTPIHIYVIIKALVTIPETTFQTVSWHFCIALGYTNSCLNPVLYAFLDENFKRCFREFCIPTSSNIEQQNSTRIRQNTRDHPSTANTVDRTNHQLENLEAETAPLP
# Diabetic Neuropathy = details: Dose mg/day: dextromethorphan hydrobromide 400-480, tramadol hydrochloride 400, gabapentin 3600; cited from earlier work
# fibromyalgia pain = assay: Combination therapy in patients with fibromyalgia (Table 2, testimonies); type: in vivo, human; details: for Pain Relief (percent of reduction in pain), Fibromyalgia: TLI-1026 twice daily (N = 5), single agents mg/day: dextromethorphan 70, tramadol 70, gabapentin 180
# [3] = cited from earlier work; for accumulation during multiple dose treatment: multiple dose treatment with tramadol
# [4] = oral dosing of rats, after 3 hours; cited from earlier work
# [5] = tested on: NF-κ-B activation in human myeloid ML-1a cells; details: pretreatment of ML-1a cells; dose- and time-dependent; cited from earlier work
# [6] = 90 g cream (0.025% capsaicin) per week, 100% absorbed, 50 kg person; cited from earlier work
# [7] = i.v. administration, rats; cited from earlier work
# [8] = tested on: pain (arthritis, back, cancer neuropathy, tooth, lumbar, cervical spondyolosis, knee); details: in vivo
# [9] = tested on: transient K+ channels in hippocampal neurons; details: cited from earlier work
# CYP2D6 = CYP2D6 (Homo sapiens, UniProt P10635); details: gabapentin concentrations up to 171 μg/mL; cited from earlier work
# [10] = cited from earlier work
# CYP3A4 = CYP3A4 (Homo sapiens, UniProt P08684); details: gabapentin concentrations up to 171 μg/mL; cited from earlier work
# CYP2E1 = CYP2E1 (Homo sapiens, UniProt P05181); details: gabapentin concentrations up to 171 μg/mL; cited from earlier work
# CYP2C19 = CYP2C19 (Homo sapiens, UniProt P33261); details: gabapentin concentrations up to 171 μg/mL; cited from earlier work
# CYP1A2 = CYP1A2 (Homo sapiens, UniProt P05177); details: gabapentin concentrations up to 171 μg/mL; cited from earlier work
# CYP2C9 = CYP2C9 (Homo sapiens, UniProt P11712); details: gabapentin concentrations up to 171 μg/mL; cited from earlier work
# Sequence of CYP2C9 (P11712 whole entry): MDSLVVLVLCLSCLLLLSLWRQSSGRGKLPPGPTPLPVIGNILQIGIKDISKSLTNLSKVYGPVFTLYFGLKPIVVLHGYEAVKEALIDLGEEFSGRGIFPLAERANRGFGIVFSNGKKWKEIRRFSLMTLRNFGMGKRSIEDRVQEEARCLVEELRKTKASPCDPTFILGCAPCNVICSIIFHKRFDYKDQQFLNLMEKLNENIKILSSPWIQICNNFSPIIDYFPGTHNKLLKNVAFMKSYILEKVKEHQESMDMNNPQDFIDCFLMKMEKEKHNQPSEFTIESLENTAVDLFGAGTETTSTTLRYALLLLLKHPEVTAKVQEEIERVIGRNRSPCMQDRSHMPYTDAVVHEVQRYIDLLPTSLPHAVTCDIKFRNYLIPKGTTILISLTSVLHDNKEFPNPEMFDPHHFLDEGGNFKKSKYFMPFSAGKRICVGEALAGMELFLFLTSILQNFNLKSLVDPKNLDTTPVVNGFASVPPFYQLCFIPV
# [11] = tested on: patients with fibromyalgia; details: fibromyalgia trials, cited from earlier work
# pain score in patients = details: cited from earlier work
# [12] = tested on: patients with diabetic peripheral neuropathy; details: diabetic peripheral neuropathy trials; cited from earlier work
# [13] = 0.2M sodium chloride; cited from earlier work
# diabetic neuropathy pain [14] = details: human, in vivo
# [15] = tested on: painful diabetic neuropathy; details: oral amitriptyline; cited from earlier work
# cardiac Na+ channels = cardiac Na+ channels (Homo sapiens, UniProt Q14524); details: cited from earlier work
# Sequence of cardiac Na+ channels (Q14524 whole entry): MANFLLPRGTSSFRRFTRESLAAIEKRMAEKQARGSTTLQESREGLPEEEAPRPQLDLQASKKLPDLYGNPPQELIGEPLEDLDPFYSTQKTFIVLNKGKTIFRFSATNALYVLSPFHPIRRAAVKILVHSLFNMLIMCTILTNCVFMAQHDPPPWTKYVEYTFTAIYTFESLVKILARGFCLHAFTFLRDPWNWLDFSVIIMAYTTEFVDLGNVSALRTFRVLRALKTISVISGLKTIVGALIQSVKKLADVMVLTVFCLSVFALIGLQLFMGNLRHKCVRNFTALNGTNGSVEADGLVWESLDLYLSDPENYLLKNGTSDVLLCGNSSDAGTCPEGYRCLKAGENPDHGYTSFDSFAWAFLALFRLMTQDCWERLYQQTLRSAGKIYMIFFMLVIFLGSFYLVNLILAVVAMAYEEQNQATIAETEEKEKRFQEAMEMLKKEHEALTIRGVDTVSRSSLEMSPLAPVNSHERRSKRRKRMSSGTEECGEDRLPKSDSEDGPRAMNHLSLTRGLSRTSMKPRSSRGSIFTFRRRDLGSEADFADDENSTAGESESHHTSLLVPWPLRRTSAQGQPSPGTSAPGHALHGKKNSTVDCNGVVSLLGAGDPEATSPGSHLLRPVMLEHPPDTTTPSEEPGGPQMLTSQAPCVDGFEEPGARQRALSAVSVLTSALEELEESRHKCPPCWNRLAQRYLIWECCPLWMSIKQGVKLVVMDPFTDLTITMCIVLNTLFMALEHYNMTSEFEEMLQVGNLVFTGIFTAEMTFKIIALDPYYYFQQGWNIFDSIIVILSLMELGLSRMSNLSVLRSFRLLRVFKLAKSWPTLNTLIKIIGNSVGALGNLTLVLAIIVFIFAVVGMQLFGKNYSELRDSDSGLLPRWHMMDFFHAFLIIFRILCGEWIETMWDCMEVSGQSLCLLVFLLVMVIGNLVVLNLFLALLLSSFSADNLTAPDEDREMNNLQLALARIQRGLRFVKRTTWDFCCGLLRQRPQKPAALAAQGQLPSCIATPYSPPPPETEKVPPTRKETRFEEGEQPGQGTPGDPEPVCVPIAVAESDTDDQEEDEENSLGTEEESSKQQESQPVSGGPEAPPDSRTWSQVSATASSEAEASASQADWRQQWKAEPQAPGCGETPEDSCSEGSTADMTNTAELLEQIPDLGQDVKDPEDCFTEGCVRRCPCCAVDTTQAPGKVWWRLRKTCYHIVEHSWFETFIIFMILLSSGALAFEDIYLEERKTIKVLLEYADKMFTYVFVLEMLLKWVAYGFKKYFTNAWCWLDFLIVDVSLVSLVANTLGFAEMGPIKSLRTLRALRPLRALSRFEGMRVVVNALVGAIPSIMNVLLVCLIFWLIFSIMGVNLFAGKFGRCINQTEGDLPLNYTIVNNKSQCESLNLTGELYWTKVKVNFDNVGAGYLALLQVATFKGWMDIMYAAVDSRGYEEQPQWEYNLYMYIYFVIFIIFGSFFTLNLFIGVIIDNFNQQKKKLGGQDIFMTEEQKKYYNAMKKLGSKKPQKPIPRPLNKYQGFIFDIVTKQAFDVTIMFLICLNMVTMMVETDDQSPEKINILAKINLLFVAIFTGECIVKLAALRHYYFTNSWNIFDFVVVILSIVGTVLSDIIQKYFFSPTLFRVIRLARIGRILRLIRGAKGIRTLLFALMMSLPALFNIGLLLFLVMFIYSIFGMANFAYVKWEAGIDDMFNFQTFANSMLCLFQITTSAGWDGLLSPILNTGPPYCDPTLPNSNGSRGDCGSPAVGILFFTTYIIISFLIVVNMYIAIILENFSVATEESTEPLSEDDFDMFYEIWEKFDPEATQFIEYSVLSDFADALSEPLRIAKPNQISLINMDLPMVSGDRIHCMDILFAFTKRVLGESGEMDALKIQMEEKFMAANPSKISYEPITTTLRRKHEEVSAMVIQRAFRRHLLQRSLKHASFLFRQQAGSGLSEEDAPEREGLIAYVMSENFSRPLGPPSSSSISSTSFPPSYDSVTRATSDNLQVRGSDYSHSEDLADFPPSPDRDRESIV
# [16] = tested on: Na+ currents in adrenal chromaffin cells; details: read-out: IC50, peak Na+ currents; cited from earlier work
# hH1 Na+ channels = hH1 Na+ channels (Homo sapiens, UniProt Q14524); details: cited from earlier work; for IC50: 0.1-100 μM
# Sequence of hH1 Na+ channels (Q14524 whole entry): as above
# postherpetic neuralgia = details: oral amitriptyline; cited from earlier work
smiles,measurement,setting,value
"COc1cccc(C2(O)CCCCC2CN(C)C)c1 (single isomer, unassigned) [Tramadol Hydrochloride, (1R,2R or 1S,2S)-(dimethylaminomethyl)-1-(3-methoxyphenyl)-cyclohexanol]",reduction in pain,"[1]; 400 mg of tramadol per day, patients with diabetic neuropathy and fibromyalgia",30-40%
same,"Pain Relief (percent of reduction in pain), Diabetic Neuropathy",diabetic neuropathy pain [2],<10%
same,"Pain Relief (percent of reduction in pain), Fibromyalgia",Fibromyalgia,<30 (Biasi 1998; percent
same,affinity for μ-opiate receptors relative to dextromethorphan,μ-opiate receptors,equivalent
same,"affinity for μ-opiate receptors, fold less than codeine",μ-opiate receptors,10 fold
same,"affinity for μ-opiate receptors, fold less than d-propoxyphene",μ-opiate receptors,100 fold
same,"affinity for μ-opiate receptors, fold less than morphine",μ-opiate receptors,"6,000 fold"
same,"Pain Relief (percent of reduction in pain), Diabetic Neuropathy",Diabetic Neuropathy,<35 (Sindrup 1999) percent and <35%
same,"Pain Relief (percent of reduction in pain), Fibromyalgia",fibromyalgia pain,<10%
same,pain relief (patient or physician testimony),fibromyalgia pain; fibromyalgia patients,moderate relief
same,time to peak serum concentrations,[3]; after oral administration,≤ 2 h
same,accumulation during multiple dose treatment,[3],approximately 2 fold
same,duration of the analgesic effect,[3]; single oral dose of tramadol 100 mg,about 6 hours
"COc1cc(CNC(=O)CCCCC=CC(C)C)ccc1O [capsaicin, 8-methyl-N-vanillyl-6-nonenamide]",absorption in the jejunum,[4],85%
same,effect on TNF-mediated activation of NF-κ-B,[5],blocked TNF-mediated activation of NF-κ-B
same,estimated daily exposure,[6],0.064 mg/kg
same,"time to distribution to brain, spinal cord, liver and blood",[7],≤ 20 min
"CCCC(C)(COC(N)=O)COC(=O)NC(C)C (stereo not shown) [Soma, Carisoprodol]",pain relief (testimony),[8],only seemed to mask the pain
same,side effects,[8],quite drowsy
CN(C)CCCN1c2ccccc2CCc2ccccc21 [imipramine],IC50,[9],~6 µM
CC(C)C[C@H](CN)CC(=O)O [Lyrica],pain relief (patient or physician testimony),diabetic neuropathy pain [2],only minimal resolution of symptoms
same,side effects / tolerability,diabetic neuropathy pain [2],"substantial, negative side effects"
CN(C)C[C@H]1CCCC[C@]1(O)c1cccc(O)c1 [M1 derivative],half-life,[3]; after a single oral dose of 100 mg,9 h
same,accumulation during multiple dose treatment,[3],approximately 2 fold
NCC1(CC(=O)O)CCCCC1 [Gabapentin],inhibition of CYP2D6,CYP2D6,No inhibition
same,relief from pain with prior therapy (physician testimony),"[1]; up to 1600 mg per day, patients with diabetic neuropathy or fibromyalgia",partial and marginal relief
same,bioavailability,[10]; 900 mg/day given in 3 divided doses,approximately 60%
same,bioavailability,[10]; 1200 mg/day given in 3 divided doses,~47%
same,bioavailability,[10]; 2400 mg/day given in 3 divided doses,~34%
same,bioavailability,[10]; 3600 mg/day given in 3 divided doses,~33%
same,bioavailability,[10]; 4800 mg/day given in 3 divided doses,~27%
same,increase in AUC and Cmax with food,[10]; food effect,14%
same,bound to plasma protein,[10]; in vivo,Less than 3%
same,"steady-state predose (Cmin) concentration in cerebrospinal fluid, % of corresponding plasma concentrations",[10]; patients with epilepsy,approximately 20%
same,"Pain Relief (percent of reduction in pain), Diabetic Neuropathy",diabetic neuropathy pain [2],<10%
same,pain relief (patient or physician testimony),diabetic neuropathy pain [2]; listed as Neurontin,no substantial pain relief
same,pain relief (patient or physician testimony),diabetic neuropathy pain [2]; listed as Nurontin,only curb the pain
same,side effects / tolerability,diabetic neuropathy pain [2],"substantial, negative side effects"
same,"Pain Relief (percent of reduction in pain), Fibromyalgia",Fibromyalgia,<50 (Lesley 2007) percent
same,inhibition of CYP3A4,CYP3A4,No inhibition
same,"Pain Relief (percent of reduction in pain), Diabetic Neuropathy",Diabetic Neuropathy,<50 (Marchettini percent and <50%
same,"Pain Relief (percent of reduction in pain), Fibromyalgia",fibromyalgia pain,<10%
same,inhibition of CYP2E1,CYP2E1,No inhibition
same,inhibition of CYP2C19,CYP2C19,No inhibition
same,inhibition of CYP1A2,CYP1A2,No inhibition
same,inhibition of CYP2C9,CYP2C9,No inhibition
COc1ccc2c(c1)[C@]13CCCC[C@@H]1[C@H](C2)N(C)CC3 [Dextromethorphan Hydrobromide],"Pain Relief (percent of reduction in pain), Fibromyalgia",Fibromyalgia,<40 (Staud 2005) percent
same,"Pain Relief (percent of reduction in pain), Diabetic Neuropathy",Diabetic Neuropathy,<50 (Sang 2002) percent and <50%
CC(C)C[C@H](CN)CC(=O)O [pregabalin],patients who discontinued prematurely due to adverse reactions,[11]; 150-600 mg/day,19%
same,discontinuation due to dizziness,[11],6%
same,discontinuation due to somnolence,[11],3%
same,"withdrawal due to each of fatigue, headache, balance disorder, weight increased",[11],approximately 1%
same,endpoint mean pain score and proportion with at least a 50% reduction in pain score,"pain score in patients; 8-week study, 50 and 100 mg three times a day",statistically significantly improved
same,endpoint mean pain score and proportion with at least a 50% reduction in pain score,"pain score in patients; 8-week study, 100 or 200 mg three times a day, doses assigned by creatinine clearance",statistically significantly improved
same,endpoint mean pain score and proportion with at least a 50% reduction in pain score,"pain score in patients; 13-week study, 75, 150, 300 mg twice daily, creatinine clearance greater than 60 mL/min, all doses",statistically significantly improved
same,endpoint mean pain score and proportion with at least a 50% reduction in pain score,pain score in patients; 100 and 200 mg three times a day,statistically significantly improved
same,discontinuation due to dizziness,[12],3%
same,discontinuation due to somnolence,[12],2%
same,patients who discontinued prematurely due to adverse reactions,[12],9%
same,"withdrawal due to each of asthenia, confusion, peripheral edema",[12],approximately 1%
COc1ccc2c(c1)[C@]13CCCC[C@@H]1[C@H](C2)N(C)CC3,"Pain Relief (percent of reduction in pain), Diabetic Neuropathy",diabetic neuropathy pain [2],<10%
same,"Pain Relief (percent of reduction in pain), Fibromyalgia",fibromyalgia pain,<10%
"COc1ccc(C(CN(C)C)C2(O)CCCCC2)cc1 (racemic) [Venlafaxine hydrochloride, (R/S)-1-[2-(dimethylamino)-1-(4-methoxyphenyl)ethyl]cyclohexanol]",octanol:water partition coefficient,[13],0.43
CN(C)CCC=C1c2ccccc2CCc2ccccc21 [Elavil],pain relief (patient or physician testimony),diabetic neuropathy pain [2],no substantial pain relief
same,side effects / tolerability,diabetic neuropathy pain [14],"substantial, negative side effects"
CN(C)CCC=C1c2ccccc2CCc2ccccc21 [amitriptyline],share of patients with a good or moderate response,[15],three-quarters
same,use-dependent block of Na+ current,"cardiac Na+ channels; 0.4 μM, repetitive pulses at a frequency of 5 Hz, cardiac myocytes",profound use-dependent block
same,time constant of recovery from the use-dependent block,cardiac Na+ channels; cardiac Na+ channels,13.6 s
same,IC50,[16],20.2 µM
same,use-dependent block during repetitive pulses,"hH1 Na+ channels; 1 μM, 5 Hz",~55%
same,IC50,"hH1 Na+ channels; inactivated channels, n=7, read-out: IC50, tonic block of inactivated hH1 channels",0.58 ± 0.03 µM
same,IC50,"hH1 Na+ channels; resting channels, n=9, read-out: IC50, tonic block of resting hH1 channels",24.8 ± 2 µM
same,share of patients with a good or moderate response,postherpetic neuralgia,about two-thirds
